From ChEMBL document CHEMBL1938396, “Synthesis of new praziquantel analogues: potential candidates for the treatment of schistosomiasis” (2012) come the findings set out here.

SMILES strings stand for the structures. Where only a bound is given, the exact number is not on record here.

This assay concerns Schistosoma mansoni. Description: Antischistosomal activity against Schistosoma mansoni assessed as worm survival incubated for overnight followed by drug washout measured on day 7. It counts as functional.
Turning to `Cc1ccc(S(=O)(=O)N2CC(=O)N3CCc4ccccc4C3C2)cc1` (stereo not given), the LC90 was above 10 µM.

Regarding `O=C(C1CCCC1)N1CC(=O)N2CCc3ccccc3C2C1` (stereo not given), the LC90 was 10 µM.

With `COc1cc2c(cc1OC)C1CN(C(=O)C3CCCCC3)CC(=O)N1CC2` (stereo not given), the LC90 worked out at 50 µM.

As for `COc1cc2c(cc1OC)C1CN(C(=O)C3CCCC3)CC(=O)N1CC2` (stereo not given), the LC90 was found to be 25 µM.

On to `COc1cc2c(cc1OC)C1CN(S(=O)(=O)c3ccc(C)cc3)CC(=O)N1CC2` (stereo not given), for which the LC90 was above 100 µM.

Regarding `COc1cc2c(cc1OC)C1CN(C(=O)c3ccc(C(F)(F)F)cc3)CC(=O)N1CC2` (stereo not given), the LC90 is above 100 µM.

Take `O=C1C(=O)N2CCc3ccccc3C2CN1C(=O)C1CCCCC1` (stereo not given): the LC90 is above 100 µM.

Consider `O=C1C(=O)N2CCc3ccccc3C2CN1C(=O)C1CCCC1` (stereo not given), for which the LC90 was above 100 µM.

In the case of `Cc1ccc(S(=O)(=O)N2CC3c4ccccc4CCN3C(=O)C2=O)cc1` (stereo not given), the LC90 is above 100 µM.

With `O=C1C(=O)N2CCc3ccccc3C2CN1C(=O)c1ccc(C(F)(F)F)cc1` (stereo not given), the LC90 was above 100 µM.

Turning to `O=C(CC1CCCCC1)N1CC2c3ccccc3CCN2C(=O)C1=O` (stereo not given), the LC90 is above 100 µM.

Regarding `O=C(C1CCCCC1)N1CC(=O)N2CCc3c([nH]c4ccccc34)C2C1` (stereo not given), the LC90 was 25 µM.

In the case of `O=C(c1ccc(C(F)(F)F)cc1)N1CC(=O)N2CCc3c([nH]c4ccccc34)C2C1` (stereo not given), the LC90 came out at 50 µM.

As for `O=C(C1CCCCC1)N1CC(=O)N2CCc3c(n(Cc4ccccc4)c4ccccc34)C2C1` (stereo not given), the LC90 was 25 µM.

`O=C(c1ccc(C(F)(F)F)cc1)N1CC(=O)N2CCc3c(n(Cc4ccccc4)c4ccccc34)C2C1` (stereo not given): the LC90 is above 100 µM.

Consider `O=C1C(=O)N2CCc3c(n(Cc4ccccc4)c4ccccc34)C2CN1C(=O)C1CCCCC1` (stereo not given), for which the LC90 is above 100 µM.

Regarding `O=C1C(=O)N2CCc3c(n(Cc4ccccc4)c4ccccc34)C2CN1C(=O)C1CCCC1` (stereo not given), the LC90 was above 100 µM.

For the compound `O=C1C(=O)N2CCc3c(n(Cc4ccccc4)c4ccccc34)C2CN1C(=O)c1ccc(C(F)(F)F)cc1` (stereo not given), the LC90 is above 100 µM.

With `O=C(CC1CCCCC1)N1CC2c3c(c4ccccc4n3Cc3ccccc3)CCN2C(=O)C1=O` (stereo not given), the LC90 was above 100 µM.

`O=C(C1CCCCC1)N1CC(=O)N2CCc3ccccc3C2C1` (stereo not given) [PRAZIQUANTEL]: the LC90 is 3 µM.
